The results in this text go back to publication PMC8684500, “Substrate specificity of Chondroitinase ABC I based on analyses of biochemical reactions and crystal structures in complex with disaccharides” (Glycobiology, 2021).

Molecules are shown by their SMILES.

Common to all, as to assay: X-ray crystal structure, soaking, […] Å
Type in all cases: binding

The target in assay [1] is T1, Chondroitinase ABC I (cABC-I) (Proteus vulgaris, UniProt P59807).
T1 construct: native purification from P. vulgaris cells (CSC as inducer); mature monomer, 997 residues; domains 25-234, 235-617, 618-1021
T1 sequence (P59807 25-1021): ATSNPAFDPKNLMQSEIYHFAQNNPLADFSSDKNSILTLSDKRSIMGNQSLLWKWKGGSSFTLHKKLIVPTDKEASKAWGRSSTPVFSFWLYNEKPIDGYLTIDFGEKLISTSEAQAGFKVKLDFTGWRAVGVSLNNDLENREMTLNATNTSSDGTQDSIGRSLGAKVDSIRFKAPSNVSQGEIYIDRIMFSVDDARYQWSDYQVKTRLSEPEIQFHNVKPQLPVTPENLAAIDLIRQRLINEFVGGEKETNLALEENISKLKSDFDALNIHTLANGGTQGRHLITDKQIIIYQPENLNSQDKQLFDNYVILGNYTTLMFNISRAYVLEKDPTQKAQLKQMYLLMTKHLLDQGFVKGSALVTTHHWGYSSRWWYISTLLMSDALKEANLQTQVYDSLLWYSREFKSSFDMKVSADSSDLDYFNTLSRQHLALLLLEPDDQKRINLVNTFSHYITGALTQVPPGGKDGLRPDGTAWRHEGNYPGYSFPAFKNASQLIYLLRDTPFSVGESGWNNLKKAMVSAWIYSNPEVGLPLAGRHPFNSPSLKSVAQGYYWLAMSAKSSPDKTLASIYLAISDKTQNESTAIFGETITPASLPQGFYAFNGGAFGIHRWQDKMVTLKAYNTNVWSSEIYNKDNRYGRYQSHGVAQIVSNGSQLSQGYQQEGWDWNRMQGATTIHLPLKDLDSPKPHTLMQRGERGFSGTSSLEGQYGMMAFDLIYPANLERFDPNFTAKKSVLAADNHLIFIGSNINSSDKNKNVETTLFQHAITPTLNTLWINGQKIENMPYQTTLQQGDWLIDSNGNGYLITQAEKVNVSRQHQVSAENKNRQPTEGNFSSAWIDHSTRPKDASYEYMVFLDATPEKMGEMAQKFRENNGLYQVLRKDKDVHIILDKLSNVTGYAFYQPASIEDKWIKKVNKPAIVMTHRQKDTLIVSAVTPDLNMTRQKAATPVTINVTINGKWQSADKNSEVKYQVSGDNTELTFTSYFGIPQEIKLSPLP
Conditions: soaked at 100 mM; pH 7.5; two molecules in active site cleft.

In assay [2] the target is T1, Chondroitinase ABC I (cABC-I). Conditions: soaked at 100 mM; pH 7.5; two molecules in active site cleft. The source holds these as a separate data set.
The target is the same in assay [3]. The following applies: soaked at 100 mM; pH 7.5; three molecules in active site cleft.

On to `CC(=O)N[C@H]1C(O)O[C@H](CO)[C@H](O)[C@@H]1O[C@@H]1OC(C(=O)O)=C[C@H](O)[C@H]1O` (stereo partly drawn) [ΔDi-0S], for which, in assay [1], the “X-ray crystal structure, soaking, 2.50 Å” value is recorded as 7EIS, cABC-I in complex with ΔDi-0S. `CC(=O)N[C@H]1C(O)O[C@H](COS(=O)(=O)O)[C@H](O)[C@@H]1O[C@@H]1OC(C(=O)O)=C[C@H](O)[C@H]1O` (stereo partly drawn) [ΔDi-6S]: the “X-ray crystal structure, soaking, 1.92 Å” value in assay [2] is recorded as 7EIR, cABC-I in complex with ΔDi-6S.

For `CC(=O)N[C@H]1C(O)O[C@H](CO)[C@H](OS(=O)(=O)O)[C@@H]1O[C@@H]1OC(C(=O)O)=C[C@H](O)[C@H]1O` (stereo partly drawn) [ΔDi-4S], the “X-ray crystal structure, soaking, 1.80 Å” value in assay [3] is listed as 7EIQ, cABC-I in complex with ΔDi-4S.
